In ChEMBL document CHEMBL2401644, “Synthesis and biological evaluation of new chlorin derivatives as potential photosensitizers for photodynamic therapy” (Bioorg Med Chem, 2013):
Active and inactive are the calls of the source. No cut-off for these calls is given here.

How the values were obtained:
[1] = Solubility of the compound in water; format: physicochemical
[2] = tested on: Mus musculus; assay: Biodistribution in tumor of BALB/c mouse allografted with mouse C26 cells at 10 mg/kg, iv after 1 to 24 hrs; format: ADME, organism-based, Neoplasm; parameters: dose 10 mg/kg, route intravenous; details: in vivo
[3] = tested on: Liver; assay: Biodistribution in liver of BALB/c mouse allografted with mouse C26 cells at 10 mg/kg, iv after 1 to 24 hrs; format: ADME, organism-based; parameters: dose 10 mg/kg, route intravenous; details: in vivo
[4] = Biodistribution in serum of BALB/c mouse allografted with mouse C26 cells at 10 mg/kg, iv after 1 hr; format: ADME, organism-based; parameters: dose 10 mg/kg, route intravenous; details: read-out: Drug uptake
[5] = Biodistribution in serum of BALB/c mouse allografted with mouse C26 cells at 10 mg/kg, iv after 3 hrs; format: ADME, organism-based; parameters: dose 10 mg/kg, route intravenous; details: read-out: Drug uptake
[6] = tested on: Serum; assay: Biodistribution in serum of BALB/c mouse allografted with mouse C26 cells at 10 mg/kg, iv after 1 to 24 hrs; format: ADME, organism-based; parameters: dose 10 mg/kg, route intravenous; details: in vivo
[7] = Biodistribution in serum of BALB/c mouse allografted with mouse C26 cells at 10 mg/kg, iv after 6 hrs; format: ADME, organism-based; parameters: dose 10 mg/kg, route intravenous; details: read-out: Drug uptake
[8] = tested on: Zone of skin; assay: Biodistribution in skin of BALB/c mouse allografted with mouse C26 cells at 10 mg/kg, iv after 24 hrs; format: ADME, organism-based; parameters: dose 10 mg/kg, route intravenous; details: in vivo
[9] = tested on: Muscle tissue; assay: Biodistribution in muscle of BALB/c mouse allografted with mouse C26 cells at 10 mg/kg, iv after 24 hrs; format: ADME, organism-based; parameters: dose 10 mg/kg, route intravenous; details: in vivo
[10] = tested on: Kidney; assay: Biodistribution in kidney of BALB/c mouse allografted with mouse C26 cells at 10 mg/kg, iv after 3 hrs; format: ADME, organism-based; parameters: dose 10 mg/kg, route intravenous; details: in vivo
[11] = tested on: Spleen; assay: Biodistribution in spleen of BALB/c mouse allografted with mouse C26 cells at 10 mg/kg, iv after 3 hrs; format: ADME, organism-based; parameters: dose 10 mg/kg, route intravenous; details: in vivo
[12] = tested on: Zone of skin; assay: Biodistribution in skin of BALB/c mouse allografted with mouse C26 cells at 10 mg/kg, iv after 3 hrs; format: ADME, organism-based; parameters: dose 10 mg/kg, route intravenous; details: in vivo
[13] = tested on: Lung; assay: Biodistribution in lung of BALB/c mouse allografted with mouse C26 cells at 10 mg/kg, iv after 3 hrs; format: ADME, organism-based; parameters: dose 10 mg/kg, route intravenous; details: in vivo
[14] = tested on: Liver; assay: Biodistribution in liver of BALB/c mouse allografted with mouse C26 cells at 10 mg/kg, iv after 24 hrs; format: ADME, organism-based; parameters: dose 10 mg/kg, route intravenous; details: in vivo
[15] = tested on: Muscle tissue; assay: Biodistribution in muscle of BALB/c mouse allografted with mouse C26 cells at 10 mg/kg, iv after 3 hrs; format: ADME, organism-based; parameters: dose 10 mg/kg, route intravenous; details: in vivo
[16] = tested on: Kidney; assay: Biodistribution in kidney of BALB/c mouse allografted with mouse C26 cells at 10 mg/kg, iv after 24 hrs; format: ADME, organism-based; parameters: dose 10 mg/kg, route intravenous; details: in vivo
[17] = tested on: C26; assay: Antitumor activity against mouse C26 cells allografted in BALB/c mouse at 10 mg/kg, iv followed by light irradiation measured after 3 to 7 days; format: functional, organism-based; parameters: dose 10 mg/kg
[18] = tested on: C26; assay: Antitumor activity against mouse C26 cells allografted in BALB/c mouse assessed as sparsely distributed cell nuclei of tumor cells at 10 mg/kg, iv administered for 3 hrs followed by light irradiation measured after 3 days by hematoxylin and eosin staining relative to control; format: functional, organism-based; parameters: dose 10 mg/kg
[19] = tested on: Brain; assay: Biodistribution in brain of BALB/c mouse allografted with mouse C26 cells at 10 mg/kg, iv after 3 hrs; format: ADME, organism-based; parameters: dose 10 mg/kg, route intravenous; details: in vivo
[20] = tested on: Mus musculus; assay: Toxicity against BALB/c mouse allografted with mouse C26 cells assessed as cellular damage in liver at 10 mg/kg, iv administered for 3 hrs followed by irradiation measured after 3 days by hematoxylin and eosin staining; format: organism-based; parameters: dose 10 mg/kg, route intravenous; details: in vivo, 72 h
[21] = tested on: C26; assay: Antitumor activity against mouse C26 cells allografted in BALB/c mouse assessed as reduction in nuclei number of tumor cells at 10 mg/kg, iv administered for 3 hrs followed by light irradiation measured after 3 days by hematoxylin and eosin staining relative to control; format: functional, organism-based; parameters: dose 10 mg/kg
[22] = Biodistribution in tumor of BALB/c mouse allografted with mouse C26 cells at 10 mg/kg, iv after 3 hrs; format: ADME, organism-based, Neoplasm; parameters: dose 10 mg/kg, route intravenous; details: read-out: Drug uptake
[23] = tested on: Spleen; assay: Biodistribution in spleen of BALB/c mouse allografted with mouse C26 cells at 10 mg/kg, iv after 24 hrs; format: ADME, organism-based; parameters: dose 10 mg/kg, route intravenous; details: in vivo
[24] = tested on: Mus musculus; assay: Toxicity against BALB/c mouse allografted with mouse C26 cells assessed as cellular damage in kidney at 10 mg/kg, iv administered for 3 hrs followed by irradiation measured after 3 days by hematoxylin and eosin staining; format: organism-based; parameters: dose 10 mg/kg, route intravenous; details: in vivo, 72 h
[25] = tested on: C26; assay: Antitumor activity against mouse C26 cells allografted in BALB/c mouse assessed as reduction in nuclei size of tumor cells at 10 mg/kg, iv administered for 3 hrs followed by light irradiation measured after 3 days by hematoxylin and eosin staining relative to control; format: functional, organism-based; parameters: dose 10 mg/kg
[26] = tested on: Serum; assay: Biodistribution in serum of BALB/c mouse allografted with mouse C26 cells at 10 mg/kg, iv after 24 hrs; format: ADME, organism-based; parameters: dose 10 mg/kg, route intravenous; details: in vivo
[27] = tested on: Brain; assay: Biodistribution in brain of BALB/c mouse allografted with mouse C26 cells at 10 mg/kg, iv after 24 hrs; format: ADME, organism-based; parameters: dose 10 mg/kg, route intravenous; details: in vivo
[28] = tested on: C26; assay: Antitumor activity against mouse C26 cells allografted in BALB/c mouse assessed as poor nuclei staining of tumor cells at 10 mg/kg, iv administered for 3 hrs followed by light irradiation measured after 3 days by hematoxylin and eosin staining relative to control; format: functional, organism-based; parameters: dose 10 mg/kg
[29] = tested on: Lung; assay: Biodistribution in lung of BALB/c mouse allografted with mouse C26 cells at 10 mg/kg, iv after 24 hrs; format: ADME, organism-based; parameters: dose 10 mg/kg, route intravenous; details: in vivo
[30] = tested on: Liver; assay: Biodistribution in liver of BALB/c mouse allografted with mouse C26 cells at 10 mg/kg, iv after 3 hrs; format: ADME, organism-based; parameters: dose 10 mg/kg, route intravenous; details: in vivo

C=Cc1c(C)c2cc3nc(cc4[nH]c(cc5nc(cc1[nH]2)C(C)(O)/C5=C\CO)c(C)c4CCC(=O)[O-])C(CCC(=O)[O-])=C3C.[Na+].[Na+] (stereo unspecified)
solubility [1]: 10 mg/mL
Drug uptake [2]: Not Active

C=Cc1c(C)c2cc3nc(cc4[nH]c(cc5nc(cc1[nH]2)C(C)(O)/C5=C\C=N/OCC)c(C)c4CCC(=O)[O-])C(CCC(=O)[O-])=C3C.[Na+].[Na+] (stereo unspecified)
solubility [1]: 10 mg/mL
Drug uptake [3]: Active
Drug uptake [2]: Active
concentration at 1 h [4]: 24200 ng/g
concentration at 3 h [5]: 5900 ng/g
Drug uptake [6]: Active

C=Cc1c(C)c2cc3nc(cc4[nH]c(cc5nc(cc1[nH]2)C(C)(O)/C5=C\C=N/OCC)c(C)c4CCC(=O)N(CC(=O)[O-])CC(=O)[O-])C(CCC(=O)N(CC(=O)[O-])CC(=O)[O-])=C3C.[Na+].[Na+].[Na+].[Na+] (stereo unspecified)
concentration at 6 h [7]: 3400 ng/g
Drug uptake [8]: Not Active
Drug uptake [9]: Not Active
Drug uptake [10]: Active
Drug uptake [11]: Active
Drug uptake [12]: Active
Drug uptake [13]: Active
Drug uptake [14]: Not Active
Drug uptake [15]: Active
Drug uptake [16]: Not Active
TGI [17]: Active
Activity [18]: Active
solubility [1]: 100 mg/mL
Drug uptake [19]: Active
Activity [20]: Non-toxic
Drug uptake [2]: Active
Activity [21]: Active
concentration at 3 h [22]: 690 ng/g
Drug uptake [23]: Not Active
Activity [24]: Non-toxic
Activity [25]: Active
concentration at 1 h [4]: 17200 ng/g
concentration at 3 h [5]: 8400 ng/g
Drug uptake [26]: Not Active
Drug uptake [27]: Not Active
Activity [28]: Active
Drug uptake [29]: Not Active
Drug uptake [30]: Active
